Legend:
Settings in all cases: 48 h
[1] = test system: CU-ACC1; test: AC50 viability; higher = less potent
Procedure, shortened: (§1)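 Three adrenocortical carcinoma cell lines were exposed for 48 h to library compounds at 11 concentrations in 1,536-well plates, then read by CellTiter-Glo luminescence. Signals were scaled per plate against vehicle and empty-well controls. From fitted concentration-response curves of inhibitory or non-responding classes alone, AC50 and area under the curve were obtained.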

[2] = test system: NCI-H295R; test: AC50 viability; higher = less potent
Procedure, shortened: as §1

[3] = test system: CU-ACC1; test: area under concentration-response curve (viability) (AUC (a.u.)); higher = less active
Procedure, shortened: as §1

[4] = test system: NCI-H295R; test: as above
Procedure, shortened: as §1

`Cc1ccc(NC(=O)c2ccc(CN3CCN(C)CC3)cc2)cc1Nc1nccc(-c2cccnc2)n1` was tested, and the AC50 viability [1] was 23.5 µM, the AC50 viability [2] was 20.9 µM and the “area under concentration-response curve” value [3] was 484. For the same molecule, the “area under concentration-response curve” value [4] was 469.

`CN1CCN(C2CCN(C(=O)Nc3cc(Oc4ccc(NC(=O)C5(C(=O)Nc6ccc(F)cc6)CC5)c(F)c4)ccn3)CC2)CC1` was tested, and the AC50 viability [1] was 29.5 µM, the AC50 viability [2] was 20.9 µM and the “area under concentration-response curve” value [3] was 392. The “area under concentration-response curve” value [4] was 453.

`CN(C)CCCN1c2ccccc2CCc2ccc(Cl)cc21` was tested, and the AC50 viability [1] was 18.6 µM, the AC50 viability [2] was 23.5 µM and the “area under concentration-response curve” value [3] was 473. The “area under concentration-response curve” value [4] was 535.

With `Cc1c(C(=O)Nc2ccc(N3C[C@@H](C)O[C@@H](C)C3)nc2)cccc1-c1ccc(OC(F)(F)F)cc1` the AC50 viability [1] was 18.6 µM, the AC50 viability [2] was 20.9 µM and the “area under concentration-response curve” value [3] was 519. The “area under concentration-response curve” value [4] was 572.

With `C[C@@H]\1COC(=N1)\NC2=CC3=C(C=C2)N=CN=C3NC4=CC(=C(OCC5=NC=CS5)C=C4)Cl` the AC50 viability [1] was 20.9 µM, the AC50 viability [2] was 41.7 µM and the “area under concentration-response curve” value [3] was 509. For the same molecule, the “area under concentration-response curve” value [4] was 522.

`CN(C)C(=O)C(CCN1CCC(O)(c2ccc(Cl)cc2)CC1)(c1ccccc1)c1ccccc1` was tested, and the AC50 viability [1] was 16.6 µM, the AC50 viability [2] was 20.9 µM and the “area under concentration-response curve” value [3] was 506. The “area under concentration-response curve” value [4] was 549.

For `CN1CCN(c2ncc(-c3cc(Cl)cc(Cl)c3Cl)c(N)n2)CC1`, the AC50 viability [1] was 14.8 µM, the AC50 viability [2] was 11.8 µM and the “area under concentration-response curve” value [3] was 405. The “area under concentration-response curve” value [4] was 487.

For `CC(C)C[C@H](NC(=O)c1cc2ccccc2s1)C(=O)N1CCN(C(=O)[C@H](CO)N[S+](=O)([O-])c2ccc(Cl)cc2Cl)CC1`, the AC50 viability [1] was 16.6 µM, the AC50 viability [2] was 18.6 µM and the “area under concentration-response curve” value [3] was 445. For the same molecule, the “area under concentration-response curve” value [4] was 494.

For `CC(C)n1cnc2c(NCCCCCCNC(=O)OC(C)(C)C)nc(NCCO)nc21`, the AC50 viability [1] was 16.6 µM, the AC50 viability [2] was 23.5 µM and the “area under concentration-response curve” value [3] was 414. For the same molecule, the “area under concentration-response curve” value [4] was 481.

`CCN1CCC(n2cc(CNc3cc(Cl)c4ncc(C#N)c(Nc5ccc(F)c(Cl)c5)c4c3)nn2)CC1` was tested, and the AC50 viability [1] was 16.6 µM, the AC50 viability [2] was 23.5 µM and the “area under concentration-response curve” value [3] was 456. For the same molecule, the “area under concentration-response curve” value [4] was 494.

For `COc1cc(N2CCN(C)CC2)ccc1Nc1ncc2c(n1)N(C)c1ccccc1C(=O)N2`, the AC50 viability [1] was 16.6 µM, the AC50 viability [2] was 23.5 µM and the “area under concentration-response curve” value [3] was 479. For the same molecule, the “area under concentration-response curve” value [4] was 492.

For `NCCCN([C@H](CC#C)C/1=N/C2=C(C=CC(=C2)Cl)C(=O)N1NC3=CC=CC=C3)C(=O)C4=CC=CC(=C4F)Cl`, the AC50 viability [1] was 33.2 µM, the AC50 viability [2] was 20.9 µM and the “area under concentration-response curve” value [3] was 429. For the same molecule, the “area under concentration-response curve” value [4] was 484.

For `COC(=O)C1=C(C)NC(C)=C(C(=O)OCCN2CCN(C(c3ccccc3)c3ccccc3)CC2)C1c1cccc([N+](=O)[O-])c1.Cl.Cl` (centres undefined), the AC50 viability [1] was 20.9 µM, the AC50 viability [2] was 11.8 µM and the “area under concentration-response curve” value [3] was 462. The “area under concentration-response curve” value [4] was 497.

For `COc1ccc(Cl)c(Nc2ncnc3cc(OCC4CCN(C)CC4)c(OC)cc23)c1`, the AC50 viability [1] was 23.5 µM, the AC50 viability [2] was 26.3 µM and the “area under concentration-response curve” value [3] was 513. The “area under concentration-response curve” value [4] was 581.

`CCNc1cc(NC2CCC(O)CC2)nc(Nc2ccc3c(ccn3Cc3ccccc3)c2)n1` (centres undefined) was tested, and the AC50 viability [1] was 0.0235 µM, the AC50 viability [2] was 1.18 µM and the “area under concentration-response curve” value [3] was 149. The “area under concentration-response curve” value [4] was 156.

With `Clc1cc(Cl)cc(CNc2ncncc2-c2ccc3c(c2)OCO3)c1` the AC50 viability [1] was 14.8 µM, the AC50 viability [2] was 13.2 µM and the “area under concentration-response curve” value [3] was 412. The “area under concentration-response curve” value [4] was 430.

For `CC(C)C(=O)Nc1ncc(-c2cc(C(F)F)nn2-c2c(Cl)cccc2Cl)s1`, the AC50 viability [1] was 23.5 µM, the AC50 viability [2] was 23.5 µM and the “area under concentration-response curve” value [3] was 472. The “area under concentration-response curve” value [4] was 507.

For `CCN1C(=O)N\2CC3=CC(=CC(=C3[C@@H](C)\C=C2C14CCN(CC4)CC5=CC(=CC(=C5)C)C)OC)OC`, the AC50 viability [1] was 37.2 µM, the AC50 viability [2] was 18.6 µM and the “area under concentration-response curve” value [3] was 426. For the same molecule, the “area under concentration-response curve” value [4] was 514.

For `C[S+](=O)([O-])CCNCc1ccc(-c2ccc3ncnc(Nc4ccc(OCc5cccc(F)c5)c(Cl)c4)c3c2)o1`, the AC50 viability [1] was 23.5 µM, the AC50 viability [2] was 20.9 µM and the “area under concentration-response curve” value [3] was 420. For the same molecule, the “area under concentration-response curve” value [4] was 456.

For `ClC1=CC=C(CCCOC/2=N/NC(=O)C(=C2NCC3=CN=CC=C3)/Br)C=C1`, the AC50 viability [1] was 3.72 µM, the AC50 viability [2] was 10.5 µM and the “area under concentration-response curve” value [3] was 358. The “area under concentration-response curve” value [4] was 457.

In the case of `NC(=O)N1CCC(CC(=O)N2CCC([C@H]3c4ncc(Br)cc4CCc4cc(Cl)cc(Br)c43)CC2)CC1`, the AC50 viability [1] is reported as 37.2 µM, the AC50 viability [2] is reported as 23.5 µM and the “area under concentration-response curve” value [3] is reported as 440. The “area under concentration-response curve” value [4] was 440.

For `COc1cc(C(=O)NC2CCN(C)CC2)ccc1Nc1ncc2c(n1)N(C1CCCC1)CCC(=O)N2C(C)C`, the AC50 viability [1] was 26.3 µM, the AC50 viability [2] was 23.5 µM and the “area under concentration-response curve” value [3] was 504. For the same molecule, the “area under concentration-response curve” value [4] was 538.

`Cc1cccc(-c2n[nH]cc2-c2ccc(F)c(-c3cnn(CCO)c3)c2)n1` was tested, and the AC50 viability [1] was 5.25 µM, the AC50 viability [2] was 13.2 µM and the “area under concentration-response curve” value [3] was 284. The “area under concentration-response curve” value [4] was 308.

`C[C@@H](NCCCc1cccc(C(F)(F)F)c1)c1cccc2ccccc12` was tested, and the AC50 viability [1] was 10.5 µM, the AC50 viability [2] was 13.2 µM and the “area under concentration-response curve” value [3] was 467. For the same molecule, the “area under concentration-response curve” value [4] was 501.

With `Cc1[nH]c(/C=C2\C(=O)Nc3ccc([S+](=O)([O-])N(C)c4cccc(Cl)c4)cc32)c(C)c1C(=O)N1CCN(C)CC1` the AC50 viability [1] was 20.9 µM, the AC50 viability [2] was 33.2 µM and the “area under concentration-response curve” value [3] was 397. For the same molecule, the “area under concentration-response curve” value [4] was 491.

For `CCOC(CN1C(=O)[C@](CC(=O)Nc2ccc(C)cc2)(NC(=O)Nc2ccc(C)cc2)c2ccccc21)OCC`, the AC50 viability [1] was 37.2 µM, the AC50 viability [2] was 29.5 µM and the “area under concentration-response curve” value [3] was 432. The “area under concentration-response curve” value [4] was 537.

Reference: the supplement of paper PMC10949913
